The results in this text go back to article PMC10108353, “Design and Pharmacological Characterization of α4β1 Integrin Cyclopeptide Agonists: Computational Investigation of Ligand Determinants for Agonism versus Antagonism” (Journal of Medicinal Chemistry, 2023).

Where only a bound is given, the exact number is not on record here.

In one test the target is αLβ2 integrin (Homo sapiens, UniProt P05107+P20701). The experiment in a line: Competitive solid-phase binding assay, purified αLβ2 / ICAM-1. Particulars: read-out: Binding affinity IC50, αLβ2/ICAM-1. As to the method: Solid-phase ligand binding assays on purified integrin were conducted as previously described[34] with the following modifications. […] The following day, wells were blocked with TSB buffer (20 mM Tris-HCl, 150 mM NaCl, 1 mM CaCl2, 1 mM MgCl2, 1 mM MnCl2, pH 7.5, 1% BSA) for 1 h at room temperature. Purified α5β1 (10 μg/mL) or αLβ2 (7 μg/mL) was incubated with the new synthesized compounds, at different concentrations (10^–4 to 10^–10 M), in coated wells for 1 h at RT. Then, after three washes with PBST buffer, primary antibody (anti-α5β1, BD Bioscience, 1:100 dilution or anti-αL, Abcam, 1:200 dilution) was added for 1 h at RT. Then antirabbit AlexaFluor488-secondary antibody (ThermoFisher Scientific, 1:400 dilution) was added after three washes with PBST buffer and incubated 1 h at room temperature.

The next test addresses T1, α4β7 integrin (Homo sapiens, UniProt P13612+P26010).
T1 construct: purchased R&D Systems
T1 sequence (P13612 34-970 limits assumed): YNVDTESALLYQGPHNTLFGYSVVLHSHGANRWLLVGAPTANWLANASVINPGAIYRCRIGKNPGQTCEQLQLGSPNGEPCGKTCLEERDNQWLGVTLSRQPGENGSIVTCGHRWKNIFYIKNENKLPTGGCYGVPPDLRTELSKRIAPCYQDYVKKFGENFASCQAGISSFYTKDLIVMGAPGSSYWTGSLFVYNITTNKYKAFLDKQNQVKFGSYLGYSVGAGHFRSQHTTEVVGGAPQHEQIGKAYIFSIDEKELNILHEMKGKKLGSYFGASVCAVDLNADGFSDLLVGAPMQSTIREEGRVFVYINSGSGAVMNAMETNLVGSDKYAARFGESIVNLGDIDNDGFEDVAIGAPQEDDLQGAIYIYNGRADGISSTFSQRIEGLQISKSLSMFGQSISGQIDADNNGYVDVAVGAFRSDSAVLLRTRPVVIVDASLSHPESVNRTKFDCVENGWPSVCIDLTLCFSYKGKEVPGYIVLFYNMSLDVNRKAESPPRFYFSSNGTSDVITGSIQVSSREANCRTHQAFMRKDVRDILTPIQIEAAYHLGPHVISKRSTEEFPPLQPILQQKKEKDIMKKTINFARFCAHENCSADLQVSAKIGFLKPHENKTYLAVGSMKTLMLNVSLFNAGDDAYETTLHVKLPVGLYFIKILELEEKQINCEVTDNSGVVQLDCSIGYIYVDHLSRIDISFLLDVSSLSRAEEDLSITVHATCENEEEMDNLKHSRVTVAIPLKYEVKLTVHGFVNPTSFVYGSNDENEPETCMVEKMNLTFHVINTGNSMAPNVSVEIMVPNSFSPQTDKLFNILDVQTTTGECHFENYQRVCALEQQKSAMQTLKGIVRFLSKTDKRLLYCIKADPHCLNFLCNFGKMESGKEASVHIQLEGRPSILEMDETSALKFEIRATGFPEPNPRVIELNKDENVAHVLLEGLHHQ
T1 sequence (P26010 20-723 limits assumed): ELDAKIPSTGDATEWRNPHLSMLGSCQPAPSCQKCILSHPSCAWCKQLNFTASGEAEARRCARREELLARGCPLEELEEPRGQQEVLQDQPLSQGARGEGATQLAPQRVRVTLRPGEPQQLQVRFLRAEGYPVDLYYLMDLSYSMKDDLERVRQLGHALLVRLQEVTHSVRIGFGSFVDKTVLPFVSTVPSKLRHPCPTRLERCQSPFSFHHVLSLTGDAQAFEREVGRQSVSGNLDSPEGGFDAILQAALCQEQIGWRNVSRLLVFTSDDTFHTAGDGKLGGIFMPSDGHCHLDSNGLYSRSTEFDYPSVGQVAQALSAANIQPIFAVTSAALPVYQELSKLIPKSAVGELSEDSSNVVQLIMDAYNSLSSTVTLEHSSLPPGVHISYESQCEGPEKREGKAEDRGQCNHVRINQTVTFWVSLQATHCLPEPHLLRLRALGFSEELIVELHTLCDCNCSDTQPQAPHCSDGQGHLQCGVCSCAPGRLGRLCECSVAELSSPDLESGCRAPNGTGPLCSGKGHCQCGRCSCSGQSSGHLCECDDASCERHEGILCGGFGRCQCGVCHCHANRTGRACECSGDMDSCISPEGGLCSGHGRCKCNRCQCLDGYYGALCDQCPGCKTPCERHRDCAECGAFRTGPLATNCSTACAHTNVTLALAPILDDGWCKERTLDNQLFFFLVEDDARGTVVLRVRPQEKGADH
Particulars: purified integrin; read-out: Binding affinity IC50, α4β7/MAdCAM-1. As to the method: (§1) For the evaluation of binding affinity to purified α4β1, αMβ2, and α4β7 integrins, competitive solid-phase ligand binding assays were performed as follows. […] Afterward, each well was washed and blocked for 1 h at RT. Purified integrins (α4β1: 0.5 μg/mL; α4β7: 0.5 μg/mL; αMβ2: 0.5 μg/mL; R&D Systems) were preincubated with serial dilutions of new compounds (10^–4 – 10^–10 M) for 30 min at RT and then plated into coated wells for 1 h at RT. After two washes, primary antibody (for α4β1 and α4β7: rabbit anti-α4, Abcam, 1:100 dilution; for αMβ2: rabbit anti-αM, Abcam, 1:100 dilution) was added and incubated for 1 h at RT. The plate was washed twice and then was incubated with anti-rabbit AlexaFluor488 secondary antibody (1:400 dilution, ThermoFischer Scientific) for 1 h at RT. After washing three times, fluorescence was measured as described in the previous section.

A further test addresses αMβ2 integrin (Homo sapiens, UniProt P05107+P11215). The experiment in a line: Competitive solid-phase binding assay, purified αMβ2 / fibrinogen. On the set-up: purchased R&D Systems. The note with it: read-out: Binding affinity IC50, αMβ2/Fg. As to the method: as §1
The target in a further test is α4β1 integrin (Homo sapiens, UniProt P05556+P13612). The test is described as follows: Jurkat E6.1 cell adhesion to VCAM-1.
Sequence of α4β1 integrin (P13612 34-1032): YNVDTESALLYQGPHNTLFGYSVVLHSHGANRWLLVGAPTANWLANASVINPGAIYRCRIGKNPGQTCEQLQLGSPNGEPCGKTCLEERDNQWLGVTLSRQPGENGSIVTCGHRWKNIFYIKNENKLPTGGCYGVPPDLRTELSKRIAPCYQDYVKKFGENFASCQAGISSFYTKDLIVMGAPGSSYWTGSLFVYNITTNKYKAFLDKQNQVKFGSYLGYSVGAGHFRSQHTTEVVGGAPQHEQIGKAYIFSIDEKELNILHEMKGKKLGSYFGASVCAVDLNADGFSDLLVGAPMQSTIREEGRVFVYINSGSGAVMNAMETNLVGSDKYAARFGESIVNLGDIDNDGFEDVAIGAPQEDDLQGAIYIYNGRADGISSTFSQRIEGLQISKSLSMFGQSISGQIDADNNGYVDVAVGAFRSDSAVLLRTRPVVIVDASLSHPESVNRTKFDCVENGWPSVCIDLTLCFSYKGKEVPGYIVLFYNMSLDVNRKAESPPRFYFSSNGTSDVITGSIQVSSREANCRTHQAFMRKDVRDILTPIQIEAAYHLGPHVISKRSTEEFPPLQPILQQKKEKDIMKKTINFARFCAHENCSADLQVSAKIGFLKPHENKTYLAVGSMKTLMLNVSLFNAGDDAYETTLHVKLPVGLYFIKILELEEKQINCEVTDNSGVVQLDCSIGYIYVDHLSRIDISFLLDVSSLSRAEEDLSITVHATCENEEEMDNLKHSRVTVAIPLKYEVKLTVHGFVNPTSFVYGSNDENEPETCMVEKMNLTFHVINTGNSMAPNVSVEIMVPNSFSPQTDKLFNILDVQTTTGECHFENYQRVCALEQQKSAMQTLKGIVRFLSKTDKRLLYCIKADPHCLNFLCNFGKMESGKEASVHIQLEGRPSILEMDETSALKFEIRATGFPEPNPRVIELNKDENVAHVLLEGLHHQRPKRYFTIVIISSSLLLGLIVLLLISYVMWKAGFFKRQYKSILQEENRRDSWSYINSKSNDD
Sequence of α4β1 integrin (P05556 21-798): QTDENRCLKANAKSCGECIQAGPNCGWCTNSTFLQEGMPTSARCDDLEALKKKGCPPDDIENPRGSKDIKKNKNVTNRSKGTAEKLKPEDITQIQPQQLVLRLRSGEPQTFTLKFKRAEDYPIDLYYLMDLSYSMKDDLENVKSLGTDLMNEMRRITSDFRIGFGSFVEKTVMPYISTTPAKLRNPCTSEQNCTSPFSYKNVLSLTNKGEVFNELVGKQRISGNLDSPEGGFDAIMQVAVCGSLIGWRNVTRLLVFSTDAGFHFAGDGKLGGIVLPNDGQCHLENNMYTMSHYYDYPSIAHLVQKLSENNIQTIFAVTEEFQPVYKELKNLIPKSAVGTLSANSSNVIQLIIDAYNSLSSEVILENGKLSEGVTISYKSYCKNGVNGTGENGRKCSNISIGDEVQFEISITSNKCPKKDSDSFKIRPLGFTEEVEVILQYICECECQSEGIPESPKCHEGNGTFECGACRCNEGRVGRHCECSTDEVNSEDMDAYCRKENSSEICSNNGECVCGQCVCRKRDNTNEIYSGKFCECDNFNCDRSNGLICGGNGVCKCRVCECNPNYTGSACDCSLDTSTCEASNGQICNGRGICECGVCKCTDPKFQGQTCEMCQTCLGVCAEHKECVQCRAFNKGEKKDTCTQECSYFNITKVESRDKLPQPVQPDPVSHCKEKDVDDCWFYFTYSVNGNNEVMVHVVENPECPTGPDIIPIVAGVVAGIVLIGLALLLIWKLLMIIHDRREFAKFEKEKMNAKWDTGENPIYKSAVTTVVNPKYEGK
For a further test, the target named is α5β1 integrin (Homo sapiens, UniProt P05556+P08648). The test is described as follows: K562 cell adhesion to FN.
Sequence of α5β1 integrin (P08648 42-894 limits assumed): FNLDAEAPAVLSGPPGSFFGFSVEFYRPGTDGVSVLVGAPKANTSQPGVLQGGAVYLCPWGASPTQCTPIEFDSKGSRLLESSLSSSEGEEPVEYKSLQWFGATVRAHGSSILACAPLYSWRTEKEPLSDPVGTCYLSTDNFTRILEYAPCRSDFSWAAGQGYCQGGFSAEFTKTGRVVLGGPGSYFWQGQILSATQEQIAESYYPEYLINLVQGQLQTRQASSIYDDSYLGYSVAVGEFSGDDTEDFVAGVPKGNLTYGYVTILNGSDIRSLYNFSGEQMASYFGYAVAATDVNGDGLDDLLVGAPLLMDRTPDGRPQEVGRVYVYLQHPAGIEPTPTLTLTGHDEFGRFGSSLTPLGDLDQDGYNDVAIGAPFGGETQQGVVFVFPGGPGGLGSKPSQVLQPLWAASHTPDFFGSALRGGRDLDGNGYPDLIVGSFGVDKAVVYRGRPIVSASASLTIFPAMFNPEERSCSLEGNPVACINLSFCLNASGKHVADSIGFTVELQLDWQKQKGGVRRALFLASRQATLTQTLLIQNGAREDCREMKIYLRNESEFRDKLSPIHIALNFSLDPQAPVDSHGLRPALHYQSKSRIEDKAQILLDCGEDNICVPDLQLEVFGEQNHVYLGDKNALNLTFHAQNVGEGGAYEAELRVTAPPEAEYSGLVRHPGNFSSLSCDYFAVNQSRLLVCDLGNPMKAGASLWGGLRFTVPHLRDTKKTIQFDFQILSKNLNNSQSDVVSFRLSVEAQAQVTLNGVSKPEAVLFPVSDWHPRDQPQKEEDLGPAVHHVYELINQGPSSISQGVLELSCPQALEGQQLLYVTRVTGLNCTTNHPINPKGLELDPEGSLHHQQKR
Sequence of α5β1 integrin (P08648 895-1049 partner limits assumed): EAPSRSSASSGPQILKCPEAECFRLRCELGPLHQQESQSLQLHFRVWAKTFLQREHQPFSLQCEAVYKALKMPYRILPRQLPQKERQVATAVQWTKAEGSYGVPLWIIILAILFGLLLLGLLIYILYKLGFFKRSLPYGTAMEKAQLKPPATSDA
Sequence of α5β1 integrin (P05556 21-798): as the sequence (P05556 21-798) above
The mark [1] stands for this setting: agonist = adhesion index >1, antagonist = adhesion index <1.

Sequence of αMβ2 integrin (P05107 23-700 limits assumed, other chains not shown): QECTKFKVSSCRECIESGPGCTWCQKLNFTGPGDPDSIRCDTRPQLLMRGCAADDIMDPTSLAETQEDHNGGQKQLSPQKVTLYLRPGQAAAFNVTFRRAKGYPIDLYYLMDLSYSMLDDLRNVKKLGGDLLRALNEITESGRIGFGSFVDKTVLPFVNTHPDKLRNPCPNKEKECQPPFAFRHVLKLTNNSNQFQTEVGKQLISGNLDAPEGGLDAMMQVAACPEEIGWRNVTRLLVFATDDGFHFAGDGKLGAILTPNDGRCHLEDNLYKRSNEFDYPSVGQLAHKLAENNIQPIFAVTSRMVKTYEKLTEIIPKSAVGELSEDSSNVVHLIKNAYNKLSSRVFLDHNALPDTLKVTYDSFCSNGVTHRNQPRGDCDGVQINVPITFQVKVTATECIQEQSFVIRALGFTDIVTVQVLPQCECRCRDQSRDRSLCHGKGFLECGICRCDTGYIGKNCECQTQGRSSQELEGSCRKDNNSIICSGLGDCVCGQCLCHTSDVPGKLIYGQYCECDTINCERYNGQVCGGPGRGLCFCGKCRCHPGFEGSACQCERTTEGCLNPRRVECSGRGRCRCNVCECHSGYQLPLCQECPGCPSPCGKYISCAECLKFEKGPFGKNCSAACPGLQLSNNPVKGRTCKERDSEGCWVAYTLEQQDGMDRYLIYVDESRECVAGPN
Method for α4β1 integrin: (§2) Cells were seeded in 96-well plates coated with the specific natural human recombinant ligands (Table 1) and allowed to adhere in the presence of increasing concentrations (10^–10 to 10^–4 M) of the synthesized CPPs before the determination of the number of adherent cells (as described in Experimental Section).
For adhesion assays on Jurkat E6.1, RPMI8866, or HL60 cells, black 96-well plates were coated overnight at 4 °C with VCAM-1 or ICAM-1 or MAdCAM-1 (5 μg/mL) or Fg (10 μg/mL). The cells were counted, stained with CellTracker green CMFDA (12.5 μM, 30 min at 37 °C, Life Technologies), and after three washes, were preincubated with increasing concentrations of new CPP (10^–10 to 10^–4 M) or with the vehicle (methanol) for 30 min at 37 °C. Then cells were plated (500 000/well) on coated wells and incubated for 30 min at 37 °C. After three washes, adhered cells were lysed with 0.5% Triton X-100 in PBS (30 min at 4 °C) and fluorescence was measured (Ex485 nm/Em535 nm) in an EnSpire Multimode Plate Reader (PerkinElmer, Waltham, MA). For adhesion assays mediated by α5β1 integrin, 96-well plates were coated by passive adsorption with FN (10 μg/mL) overnight at 4 °C. K562 cells were counted and preincubated with various concentrations of the peptides or with the vehicle (methanol) for 30 min at RT. Afterward, the cells were plated (50 000 cells/well) and incubated at RT for 1 h. The wells were then washed with 1% BSA in PBS (phosphate-buffered saline) to take off nonadherent cells, and 50 μL of hexosaminidase substrate was added; after addition of 100 μL of stopping solution, the plates were read at 405 nm. In both types of adhesion assay, the number of adherent cells was determined by comparison with a standard curve made in the same plate. Experiments were carried out in quadruplicate and repeated at least three times.
Jurkat E6.1 (expressing α4β1 and αLβ2 integrin), K562 (expressing α5β1 integrin) and HL60 (expressing αMβ2 integrin) cell lines were purchased from ATCC (Rockville, MD, USA); these cells were routinely cultured in RPMI-1640 (Life Technologies) supplemented with glutamine and 10% FBS.
Cells were grown at 37 °C under 5% CO2 humidified atmosphere.
Method for α5β1 integrin: as §2
For adhesion assays on Jurkat E6.1, RPMI8866, or HL60 cells, black 96-well plates were coated overnight at 4 °C with VCAM-1 or ICAM-1 or MAdCAM-1 (5 μg/mL) or Fg (10 μg/mL). The cells were counted, stained with CellTracker green CMFDA (12.5 μM, 30 min at 37 °C, Life Technologies), and after three washes, were preincubated with increasing concentrations of new CPP (10^–10 to 10^–4 M) or with the vehicle (methanol) for 30 min at 37 °C. […] After three washes, adhered cells were lysed with 0.5% Triton X-100 in PBS (30 min at 4 °C) and fluorescence was measured (Ex485 nm/Em535 nm) in an EnSpire Multimode Plate Reader (PerkinElmer, Waltham, MA). […] K562 cells were counted and preincubated with various concentrations of the peptides or with the vehicle (methanol) for 30 min at RT. […] The wells were then washed with 1% BSA in PBS (phosphate-buffered saline) to take off nonadherent cells, and 50 μL of hexosaminidase substrate was added; after addition of 100 μL of stopping solution, the plates were read at 405 nm. […]

In the case of `Cc1ccccc1NC(=O)N1C(=O)CC1CC(=O)O` (stereo not shown) [1a], the IC50 on αLβ2 integrin, on α4β7 integrin and on αMβ2 integrin was > 5 µM in each case. In addition, the “agonist or antagonist behaviour, VCAM-1/Jurkat E6.1 α4β1” value at α4β1 integrin (setting [1]) is given as “agonist”. The EC50 on α4β1 integrin (read-out: EC50 for agonists, VCAM-1/Jurkat E6.1 α4β1, increase of cell adhesion, mean ± SD) worked out at 0.013 ± 0.0008 µM.

For the compound `Cc1ccccc1NC(=O)N1C(=O)CC1CC(=O)NCC(=O)O` (stereo not shown) [1b], the IC50 at αLβ2 integrin, on α4β7 integrin and at αMβ2 integrin was > 5 µM each time. The “agonist or antagonist behaviour, FN/K562 α5β1” value on α5β1 integrin (setting [1]) is reported as “agonist”. For the same compound, on α5β1 integrin (read-out: EC50 for agonists, FN/K562 α5β1, increase of cell adhesion, mean ± SD), the EC50 is 0.0097 ± 0.0005 µM.
